Data from US11066414B2, “Cot modulators and methods of use thereof” (Gilead Sciences, Inc., priority 2015, dated 2021).
Where two headings read alike, the source gives them in different places.

Experiments:
Human Cot = Human Cot (Homo sapiens (Human), UniProt P41279); assay: High Throughput Cot Biochemical Assay
TNFα = assay: Cot Monocyte TNFα Cell Based Assay
[1] = read-out: IC50 HTRF, Cot HTRF (TR-FRET) biochemical assay
[2] = read-out: EC50 TNF, LPS-stimulated human monocytes, TNFα
[3] = IC50 HTRF, Cot HTRF (TR-FRET) biochemical assay
[4] = Homo sapiens, Monocyte, read-out: EC50 TNF, LPS-stimulated human monocytes, TNFα
[5] = IC50 HTRF, Cot HTRF (TR-FRET KinEASE) biochemical assay, 400 μM ATP
[6] = Homo sapiens, Monocyte, read-out: EC50 TNF, LPS-stimulated human monocytes, TNFα TR-FRET

Sequence of Human Cot (P41279 30-397): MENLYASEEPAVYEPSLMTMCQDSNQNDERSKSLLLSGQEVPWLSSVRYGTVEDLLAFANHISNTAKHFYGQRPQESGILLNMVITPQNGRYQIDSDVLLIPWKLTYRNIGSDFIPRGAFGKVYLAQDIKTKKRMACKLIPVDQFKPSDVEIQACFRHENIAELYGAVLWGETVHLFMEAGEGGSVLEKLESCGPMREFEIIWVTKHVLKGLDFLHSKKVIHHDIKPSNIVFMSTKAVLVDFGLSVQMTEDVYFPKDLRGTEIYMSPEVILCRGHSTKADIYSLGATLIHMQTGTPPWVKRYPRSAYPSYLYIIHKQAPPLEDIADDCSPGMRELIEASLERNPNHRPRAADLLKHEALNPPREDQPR

IC50 (Human Cot; [3]) | EC50 (TNFα; [4]) | Compound | also measured
 |  | CC[C@@H](Nc1c(C#N)cnc2c(Cl)cc(N[C@@H](c3cccnc3)c3cn([C@H]4[C@@H]5CNC[C@@H]54)nn3)cc12)c1ccccc1 [Example 180, 6-(((S)-(1-((• R,5S,6s)-3-azabicyclo[3.1 0]hexan-6-yl)-1H-1,2,3-triazol-4-yl)(pyridin-3-yl)methyl)amino)-8-chloro-4-(((R)-1-phenylpropyl)amino)-quinoline-3-carbonitrile] | IC50 (Human Cot; [1]): 1 nM; EC50 (TNFα; [2]): 104 nM
 |  | CC1(C)CC(n2cc([C@@H](Nc3cc(Cl)c4ncc(C#N)c(Nc5ccc(F)c(Cl)c5)c4c3)c3cccnc3)nn2)CC(C)(C)N1 [Example 309] | IC50 (Human Cot; [1]): 8 nM; EC50 (TNFα; [2]): 181 nM
3 nM | 67 nM | CC(C)(C)CNc1c(C#N)cnc2c(Cl)cc(N[C@H](c3cn(C4(C#N)CC4)nn3)c3cccc4ncsc34)cc12 [Example 415, (S)-6-((benzo[d]thiazol-7-yl(1-(1-cyanocyclopropyl)-1H-1,2,3-triazol-4-yl)methyl)amino)-8-chloro-4-(neopentylamino)quinoline-3-carbonitrile] | 
 |  | CC(C)(C)N1CCC(n2cc([C@@H](Nc3cc(Cl)c4ncc(C#N)c(Nc5ccc(F)c(Cl)c5)c4c3)c3csc(N4CCOCC4)n3)nn2)CC1 [Example 300] | IC50 (Human Cot; [1]): 7 nM; EC50 (TNFα; [2]): 165 nM
 |  | Cc1nc(F)ccc1[C@H](Nc1cc(Cl)c2ncc(C#N)c(NCC(C)(C)C)c2c1)c1nnn(C2(C(F)F)CC2)c1C#N [Example 974, (S)-8-chloro-6-(((5-cyano-1-(1-(difluoromethyl)cyclopropyl)-1H-1,2,3-triazol-4-yl)(6-fluoro-2-methylpyridin-3-yl)methyl)amino)-4-(neopentylamino)quinoline-3-carbonitrile] | IC50 (Human Cot; [5]): 11 nM; EC50 (TNFα; [6]): 60 nM
3 nM | 69 nM | CC(C)(C)CNc1c(C#N)cnc2c(Cl)cc(N[C@H](c3cn(C4(C)CC4)nn3)c3cccc4cnccc34)cc12 [Example 564, (S)-8-chloro-6-((isoquinolin-5-yl(1-(1-methylcyclopropyl)-1H-1,2,3-triazol-4-yl)methyl)amino)-4-(neopentylamino)-quinoline-3-carbonitrile] | 
142 nM | 808 nM | CC(C)(C)CNc1c(C#N)cnc2c(C#N)cc(N[C@H](c3cn(C4(C(F)(F)F)CC4)nn3)c3cncc4ccccc34)cc12 [Example 673, (S)-6-((isoquinolin-4-yl(1-(1-(trifluoromethyl)cyclopropyl)-1H-1,2,3-triazol-4-yl)methyl)amino)-4-(neopentylamino)quinoline-3,8-dicarbonitrile] | 
2 nM | 92 nM | [2H][C@](Nc1cc(Cl)c2ncc(C#N)c(Nc3cnc(F)c(Cl)c3)c2c1)(c1ccc(F)nc1)c1cn(C2CC2)nn1 [Example 139, (S)-8-chloro-4-((5-chloro-6-fluoropyridin-3-yl)amino)-6-(((1-cyclopropyl-1H-1,2,3-triazol-4-yl)(6-fluoropyridin-3-yl)methyl-d)amino)quinoline-3-carbonitrile] | 
38 nM | 1190 nM | Cn1nccc1[C@H](Nc1cc(Cl)c2ncc(C#N)c(Nc3ccc(Cl)c(Cl)c3F)c2c1)c1c[nH]nn1 [Example 216, (S)-8-chloro-4-((3,4-dichloro-2-fluorophenyl)amino)-6-(((1-methyl-1H-pyrazol-5-yl)(1H-1,2,3-triazol-4-yl)methyl)amino)quinoline-3-carbonitrile] | 
5 nM | 119 nM | [2H]C([2H])([2H])C([2H])([2H])C(Nc1c(C#N)cnc2c(Cl)cc(N[C@@]([2H])(c3ccc(F)nc3)c3cn(C4CC4)nn3)cc12)c1ccccc1 (stereo partly drawn) [Example 115, 8-chloro-6-(((S)-(1-cyclopropyl-1H-1,2,3-triazol-4-yl)(6-fluoropyridin-3-yl)methyl-d)amino)-4-((1-phenylpropyl-2,2,3,3,3-d5)amino)quinoline-3-carbonitrile] | 
 |  | CC(C)(CNc1c(C#N)cnc2c(C#N)cc(N[C@H](c3cn(C4(C(F)F)CC4)nn3)c3cccc4ncccc34)cc12)C(F)(F)F [Example 894] | IC50 (Human Cot; read-out: IC50 HTRF, Cot HTRF (TR-FRET KinEASE) biochemical assay, 400 μM ATP): 3 nM; EC50 (TNFα; read-out: EC50 TNF, LPS-stimulated human monocytes, TNFα TR-FRET): 54 nM
10 nM | 370 nM | N#Cc1cnc2c(Cl)cc(N[C@@H](c3cncc(Cl)c3)c3cn(C4CC4)nn3)cc2c1Nc1cnc(F)c(F)c1 [Example 146, (S)-8-chloro-6-(((5-chloropyridin-3-yl)(1-cyclopropyl-1H-1,2,3-triazol-4-yl)methyl)amino)-4-((5,6-difluoropyridin-3-yl)amino)-quinoline-3-carbonitrile] | 
5 nM | 127 nM | Cc1cncc([C@H](Nc2cc(Cl)c3ncc(C#N)c(Nc4ccc(F)c(Cl)c4)c3c2)c2cn(C3CCN(C(C)(C)C)CC3)nn2)c1 [Example 250, (S)-6-(((1-(1-(tert-butyl)piperidin-4-yl)-1H-1,2,3-triazol-4-yl)(5-methylpyridin-3-yl)methyl)amino)-8-chloro-4-((3-chloro-4-fluorophenyl)amino)quinoline-3-carbonitrile] | 
6 nM | 379 nM | Cn1cc2c([C@H](Nc3cc(Cl)c4ncc(C#N)c(NCC(C)(C)C)c4c3)c3cn(C4(C(F)F)CC4)nn3)cccc2n1 [Example 497, (S)-8-chloro-6-(((1-(1-(difluoromethyl)-cyclopropyl)-1H-1,2,3-triazol-4-yl)(2-methyl-2H-indazol-4-yl)methyl)amino)-4-(neopentylamino)quinoline-3-carbonitrile] | 
4 nM | 127 nM | CC(C)(CNc1c(C#N)cnc2c(Cl)cc(N[C@H](c3cn(C4(C(F)F)CC4)nn3)c3cccc4c(=O)[nH]ccc34)cc12)C(F)(F)F [Example 726, (S)-8-chloro-6-(((1-(1-(difluoromethyl)cyclopropyl)-1H-1,2,3-triazol-4-yl)(1-oxo-1,2-dihydroisoquinolin-5-yl)methyl)amino)-4-((3,3,3-trifluoro-2,2-dimethylpropyl)amino)quinoline-3-carbonitrile] | 
 |  | Cc1nc(F)ccc1[C@H](Nc1cc(C#N)c2ncc(C#N)c(NCC(C)(C)C)c2c1)c1cn(CC2(C)CC2)nn1 [Example 866, (S)-6-(((6-fluoro-2-methylpyridin-3-yl)(1-((1-methylcyclopropyl)methyl)-1H-1,2,3-triazol-4-yl)methyl)amino)-4-(neopentylamino)quinoline-3,8-dicarbonitrile] | IC50 (Human Cot; [5]): 2 nM; EC50 (TNFα; [6]): 18 nM
3 nM | 51 nM | CC(C)(C)CNc1c(C#N)cnc2c(Cl)cc(N[C@H](c3cn(C4(C(F)F)CC4)nn3)c3cccc4cnccc34)cc12 [Example 536, (S)-8-chloro-6-(((1-(1-(difluoromethyl)-cyclopropyl)-1H-1,2,3-triazol-4-yl)(isoquinolin-5-yl)methyl)amino)-4-(neopentylamino)quinoline-3-carbonitrile] | 
7 nM | 108 nM | Cn1cnc2cccc([C@H](Nc3cc(Cl)c4ncc(C#N)c(NCC(C)(C)C)c4c3)c3cn(C4(C(F)(F)F)CC4)nn3)c21 [Example 483, (S)-8-chloro-6-(((1-methyl-1H-benzo[d]imidazol-7-yl)(1-(1-(trifluoromethyl)cyclopropyl)-1H-1,2,3-triazol-4-yl)methyl)amino)-4-(neopentylamino)quinoline-3-carbonitrile] | 
